From patent publication EP0768085A1, “ANTIBACTERIAL AGENT” (DAIICHI PHARMACEUTICAL CO., LTD., priority 1994, dated 1996)
In brackets after ≈: the same amount, converted by molar mass.

How the values were obtained:
Assay type in all cases: cell-based
[1] = system: Staphylococcus aureus 209-P; assay: Antibacterial activity (IC), Mueller-Hinton broth, 96-well microplate (Example 4, Table 39); conditions: 37°C, 18 hours
Protocol: (§1) A suitable amount of a sample was dissolved in dimethylsulfoxide (DMSO), and the resultant solution was diluted with the same amount of sterilized distilled water to prepare a bulk sample of 1,000 µg/ml. Mueller-Hinton broth (product of DIFCO) was dispensed into each well of 96-well microplate. Thereafter, the bulk specimen was added to the first well of a row, and successively diluted (10-fold each time) with sterilized distilled water. Separately, a bacterial cell suspension for the test (Staphylococcus aureus 209-P) which had been cultured in the above-mentioned broth overnight at 37°C was inoculated to each well so that the final inoculation amount of 10^6 CFU/ml was attained. The final concentrations of the samples were 100, 10, and 1 µg/ml.
(§2) The antibacterial action was evaluated by the inhibitory concentration (hereinafter abbreviated as IC) at which propagation of the bacteria cultured at 37°C for 18 hours was inhibited. Inhibition was determined by the turbidity of the medium. The expressions "IC≤100", "≤10", and "≤1" indicate that MIC-equivalent values obtained at the succesive […] dilution of the sample are 100-10 µg/ml, 10-1 µg/ml, and not more than 1 µg/ml, respectively. […] (In the subsequent Examples, the same rule applies correspondingly.) Table 39

[2] = system: Staphylococcus aureus TI-1; assay: Antibacterial activity (IC), broth microplate as in Example 4 (Example 5, Table 40); conditions: TI1, 18 h
Protocol: as §1, §2
In a manner similar to that described in Example 4, antibacterial activity of the invention compound was determined. The bacterium used for the test was Staphylococcus aureus TI-1.

[3] = system: Pasteurella multocida (Kobe-6); assay: Antibacterial activity (IC), agar as in Example 8 (Example 17, Table 50); conditions: 18 h, origin pig
Protocol: as §2
(§3) A suitable amount of a sample was dissolved in dimethylsulfoxide (DMSO), after which the resulting solution was diluted with the same amount of sterilized distilled water to prepare a bulk sample of 1,000 µg/ml. Separately, a bacterial liquid for the test (methicillin-resistant Staphylococcus aureus (MRSA) isolated from humans) which had been cultured in Mueller-Hinton broth (product of DIFCO) was prepared and inoculated to a Mueller-Hinton agar (product of DIFCO) containing the sample so that the final inoculation amount of 10^6 CFU/ml was achieved. The final concentrations of the samples were 100, 10, and 1 µg/ml.
(§4) After culturing at 37°C for 18 hours, the antibacterial activity was evaluated in terms of IC in a manner similar to that described in Example 4.
In a manner similar to that described in Example 8, antibacterial activity of the invention compound was determined. The bacterium used for the test was Pasteurella Kobe-6 (origin: pig, Pasteurella multocida).

Enterococcus from fish = assay: Antibacterial activity (IC), agar as in Example 8, media with 1.5% NaCl, 25°C (Example 20, Tables 53-55)
Protocol: as §2, §3, §4
(§5) In a manner similar to that described in Example 8, antibacterial activity of a variety of ketonitrile derivatives shown in Tables 53-55 was measured. The bacteria used for the test were Enterococcus and Pasteurella from fish. The culture conditions were such that the media contained 1.5% NaCl, and the culture temperature was 25°C.

Pasteurella from fish = assay: as above; conditions: Pasteurella piscicida KP94-02
Protocol: as §2, §3, §4, §5

[4] = system: Staphylococcus aureus (209-P); assay: Antibacterial activity (IC), agar as in Example 8 (Example 15, Table 48); conditions: 18 h
Protocol: as §2, §3, §4
The bacterium used for the test was Staphylococcus aureus (209-P).

[5] = system: Streptococcus aureus (TI-1); assay: Antibacterial activity (IC), agar as in Example 8 (Example 16, Table 49); conditions: 18 h
Protocol: as §2, §3, §4
In a manner similar to that described in Example 8, antibacterial activity of the invention compound was determined. The bacterium used for the test was […] aureus (TI-1).

MIC [3] [µg/mL] | MIC [4] [µg/mL] | MIC [5] [µg/mL] | Structure (SMILES) | other results
– | – | – | CC(Oc1ccc(Oc2ncc(C(F)(F)F)cc2Cl)cc1)C(=O)C(C#N)c1ccc(F)cc1F (centres unmarked) [compound 25] | MIC [1]: 10 to 100 µg/mL (≈ 20.1 to 201 µM); MIC [2]: 10 to 100 µg/mL (≈ 20.1 to 201 µM)
– | – | – | CC(Oc1ccc(Oc2ncc(C(F)(F)F)cc2Cl)cc1)C(=O)C(C#N)c1cc(F)ccc1F (centres unmarked) [compound 26] | MIC [1]: 10 to 100 µg/mL (≈ 20.1 to 201 µM); MIC [2]: 10 to 100 µg/mL (≈ 20.1 to 201 µM)
– | – | – | CC(Oc1ccc(Oc2ncc(C(F)(F)F)cc2Cl)cc1)C(=O)C(C#N)c1c(F)cccc1F (centres unmarked) [compound 28] | MIC [2]: 10 to 100 µg/mL (≈ 20.1 to 201 µM)
– | – | – | CC(Oc1ccc(Oc2ccc([N+](=O)[O-])cc2F)cc1)C(=O)C(C#N)c1ccc(Cl)cc1Cl (centres unmarked) [compound 29] | MIC [1]: 10 to 100 µg/mL (≈ 20.4 to 204 µM); MIC [2]: 10 to 100 µg/mL (≈ 20.4 to 204 µM)
– | – | – | CCN(Cc1ccccc1)C(=O)C(C#N)C(=O)C(C)Oc1ccc(Oc2ncc(C(F)(F)F)cc2Cl)cc1 (centres unmarked) [compound 39] | MIC [1]: 10 to 100 µg/mL (≈ 18.3 to 183 µM)
– | – | – | CC(Oc1ccc(Oc2ncc(C(F)(F)F)cc2Cl)cc1)C(=O)C(C#N)C(=O)N1CCCc2ccccc21 (centres unmarked) [compound 40] | MIC [1]: 10 to 100 µg/mL (≈ 18.4 to 184 µM)
10 to 100 (≈ 18.5 to 185 µM) | 10 to 100 (≈ 18.5 to 185 µM) | 10 to 100 (≈ 18.5 to 185 µM) | CC(Oc1cc(Oc2ccc(C(F)(F)F)cc2Cl)ccc1[N+](=O)[O-])C(=O)C(C#N)C(=O)N1CCOCC1 (centres unmarked) [compound 137] | –
10 to 100 (≈ 17.8 to 178 µM) | ≤ 1 | ≤ 1 | CC(Oc1cc(Oc2ccc(C(F)(F)F)cc2Cl)ccc1Cl)C(=O)C(C#N)c1ccc(Cl)cc1Cl (centres unmarked) [compound 151] | –
1 to 10 (≈ 1.78 to 17.8 µM) | ≤ 1 | ≤ 1 | CC(Oc1cc(Oc2ccc(C(F)(F)F)cc2Cl)ccc1Cl)C(=O)C(C#N)c1ccc(Cl)c(Cl)c1 (centres unmarked) [compound 152] | –
10 to 100 (≈ 20.2 to 202 µM) | 1 to 10 (≈ 2.02 to 20.2 µM) | – | CC(Oc1cc(Oc2ccc(C(F)(F)F)cc2Cl)ccc1Cl)C(=O)C(C#N)c1ccccc1 (centres unmarked) [compound 156] | –
– | 10 to 100 (≈ 19.4 to 194 µM) | 10 to 100 (≈ 19.4 to 194 µM) | CC(Oc1cc(Oc2ccc(C(F)(F)F)cc2Cl)ccc1Cl)C(=O)C(C#N)C(=O)N1CCCC1 (centres unmarked) [compound 169] | –
10 to 100 (≈ 18.9 to 189 µM) | 1 to 10 (≈ 1.89 to 18.9 µM) | 1 to 10 (≈ 1.89 to 18.9 µM) | CC(Oc1cc(Oc2ccc(C(F)(F)F)cc2Cl)ccc1Cl)C(=O)C(C#N)C(=O)N1CCCCC1 (centres unmarked) [compound 170] | –
– | 10 to 100 (≈ 18.8 to 188 µM) | – | CC(Oc1cc(Oc2ccc(C(F)(F)F)cc2Cl)ccc1Cl)C(=O)C(C#N)C(=O)N1CCOCC1 (centres unmarked) [compound 172] | –
– | 1 to 10 (≈ 1.81 to 18.1 µM) | – | CC(Oc1cc(Oc2ccc(C(F)(F)F)cc2Cl)ccc1Cl)C(=O)C(C#N)C(=O)N(C)c1ccccc1 (centres unmarked) [compound 175] | –
– | ≤ 1 | ≤ 1 | CC(Oc1cccc(Oc2ccc(C(F)(F)F)cc2Cl)c1)C(=O)C(C#N)c1cccc(Cl)c1 (centres unmarked) [compound 207] | –
– | 1 to 10 (≈ 2.02 to 20.2 µM) | 1 to 10 (≈ 2.02 to 20.2 µM) | CC(Oc1cccc(Oc2ccc(C(F)(F)F)cc2Cl)c1)C(=O)C(C#N)C(=O)N1CCCCC1 (centres unmarked) [compound 208] | –

Structure (SMILES) | MIC [3] [µg/mL] | MIC [4] [µg/mL] | MIC [5] [µg/mL] | other results
CC(Oc1cc(Oc2ccc(C(F)(F)F)cc2Cl)ccc1[N+](=O)[O-])C(=O)C(C#N)C(=O)N1CCCCC1 (centres unmarked) [compound 135] | 10 to 100 (≈ 18.5 to 185 µM) | – | – | IC (Enterococcus from fish; Enterococcus Seriolicida HI): ≤100 (MIC-equivalent values obtained at the succesive 2-fold dilution of the sample are 100-10 µg/ml); IC (Enterococcus from fish; Enterococcus Seriolicida KG86050): ≤100 (MIC-equivalent values obtained at the succesive 2-fold dilution of the sample are 100-10 µg/ml); IC (Enterococcus from fish; Enterococcus Seriolicida MS89060): ≤100 (MIC-equivalent values obtained at the succesive 2-fold dilution of the sample are 100-10 µg/ml); IC (Enterococcus from fish; Enterococcus Seriolicida MS89064): ≤100 (MIC-equivalent values obtained at the succesive 2-fold dilution of the sample are 100-10 µg/ml); IC (Enterococcus from fish; Enterococcus Seriolicida MS89066): ≤100 (MIC-equivalent values obtained at the succesive 2-fold dilution of the sample are 100-10 µg/ml); IC (Enterococcus from fish; Enterococcus Seriolicida MS89068): ≤100 (MIC-equivalent values obtained at the succesive 2-fold dilution of the sample are 100-10 µg/ml); IC (Enterococcus from fish; Enterococcus Seriolicida SE94-001): ≤100 (MIC-equivalent values obtained at the succesive 2-fold dilution of the sample are 100-10 µg/ml); MIC (Enterococcus from fish; Enterococcus Seriolicida SE94-002): 10 to 100 µg/mL (≈ 18.5 to 185 µM); IC (Enterococcus from fish; Enterococcus Seriolicida SE94-003): ≤100 (MIC-equivalent values obtained at the succesive 2-fold dilution of the sample are 100-10 µg/ml); IC (Enterococcus from fish; Enterococcus Seriolicida SE94-004): ≤100 (MIC-equivalent values obtained at the succesive 2-fold dilution of the sample are 100-10 µg/ml); IC (Enterococcus from fish; Enterococcus Seriolicida SE94-005): ≤100 (MIC-equivalent values obtained at the succesive 2-fold dilution of the sample are 100-10 µg/ml); MIC (Pasteurella from fish): 10 to 100 µg/mL (≈ 18.5 to 185 µM)
